Source: patent US9206396B2, “Methods and devices for quantitative viral assays” (Wisconsin Alumni Research Foundation, priority 2005, dated 2015)
In brackets after ≈: the same amount, converted by molar mass. Entries after “also recorded” stand apart in the source; their conditions may differ. Read-outs that look alike come from different tables or passages of the source.

Key:
Assay in all cases: microbe, parasite or virus in culture
Type in all cases: cell-based, recombinant VSV in BHK cells
rVSV-GFP [1] = test system: rVSV-GFP
rVSV-GFP [2] = test system: rVSV-GFP; remark: listed apart in the source
rVSV-GFP [3] = test system: rVSV-GFP; remark: listed apart in the source

## O=c1[nH]cc(F)c(=O)[nH]1 [5-fluorouracil]
rVSV-GFP [1]
  Infection at drug concentration of 16 μg/ml, yield assay: retained detectable infection
rVSV-GFP [1]; Vesicular stomatitis virus, read-out: IC50, drug concentration required to reduce the virus yield by 50%
  IC50: 4 µg/mL (≈ 30.8 µM)
rVSV-GFP [2]
  Infection at drug concentration of 16 μg/ml, plaque assay: retained detectable infection
rVSV-GFP [2]; Vesicular stomatitis virus, read-out: IC50, drug concentration required to reduce the number of plaques by 50%
  IC50: 16 µg/mL (≈ 123 µM)
rVSV-GFP [3]
  Detection of comets at 16 μg/ml: comets could no longer be detected
  Inhibition of VSV comet formation: Dose-dependent inhibition; also recorded: inhibited the formation of comets in a dose-dependent manner
rVSV-GFP [3]; Vesicular stomatitis virus, read-out: 50 percent inhibition concentration (IC50), virus infectivity, comet assay
  IC50: 1 µg/mL (≈ 7.69 µM)
